ChEMBL document CHEMBL1135126, “Identification of novel antifungal nonapeptides through the screening of combinatorial peptide libraries based on a hexapeptide motif” (Bioorg Med Chem Lett, 2002)
pIC50: −log10 of the molar value. In brackets after ≈: the same amount, converted by molar mass.

Columns and labels:
Cryptococcus neoformans = experiment: Concentration that substantially inhibit the growth of Cryptococcus neoformans; assay type: functional
Candida albicans = experiment: Concentration that substantially inhibit growth of Candida albicans; assay type: functional, organism-based

MIC (Cryptococcus neoformans) | SMILES | pIC50 (Candida albicans)
2.39 µM (≈ 3.11 µg/mL) | CC[C@H](C)[C@H](NC(=O)[C@@H](Cc1ccccc1)NC(=O)[C@@H](Cc1c[nH]c2ccccc12)NC(=O)[C@@H](N)CCCN=C(N)N)C(=O)N[C@H](Cc1ccccc1)C(=O)N[C@@H](Cc1c[nH]cn1)C(=O)N[C@@H](CCCCN)C(=O)N[C@@H](CCCN=C(N)N)C(=O)N[C@@H](CC(N)=O)C(N)=O | 5.33
2.36 µM (≈ 3.11 µg/mL) | CC[C@H](C)[C@H](NC(=O)[C@@H](Cc1ccccc1)NC(=O)[C@@H](Cc1c[nH]c2ccccc12)NC(=O)[C@@H](N)CCCN=C(N)N)C(=O)N[C@H](Cc1ccccc1)C(=O)N[C@@H](Cc1c[nH]cn1)C(=O)N[C@@H](CCCCN)C(=O)N[C@@H](CCCN=C(N)N)C(=O)N[C@@H](CCCCN)C(N)=O | 5.48
2.42 µM (≈ 3.11 µg/mL) | CC[C@H](C)[C@H](NC(=O)[C@@H](Cc1ccccc1)NC(=O)[C@@H](Cc1c[nH]c2ccccc12)NC(=O)[C@@H](N)CCCN=C(N)N)C(=O)N[C@H](Cc1ccccc1)C(=O)N[C@@H](Cc1c[nH]cn1)C(=O)N[C@@H](CCCCN)C(=O)N[C@@H](CCCN=C(N)N)C(=O)N1CCC[C@H]1C(N)=O | 5.33
2.45 µM (≈ 3.06 µg/mL) | CC[C@H](C)[C@H](NC(=O)[C@@H](Cc1ccccc1)NC(=O)[C@@H](Cc1c[nH]c2ccccc12)NC(=O)[C@@H](N)CCCN=C(N)N)C(=O)N[C@H](Cc1ccccc1)C(=O)N[C@@H](Cc1c[nH]cn1)C(=O)N[C@@H](CCCCN)C(=O)N[C@@H](CCCCN)C(=O)N[C@@H](CO)C(N)=O | 5.75
2.43 µM (≈ 3.06 µg/mL) | CC[C@H](C)[C@H](NC(=O)[C@@H](Cc1ccccc1)NC(=O)[C@@H](Cc1c[nH]c2ccccc12)NC(=O)[C@@H](N)CCCN=C(N)N)C(=O)N[C@H](Cc1ccccc1)C(=O)N[C@@H](Cc1c[nH]cn1)C(=O)N[C@@H](CCCCN)C(=O)N[C@@H](CCCCN)C(=O)N[C@H](C(N)=O)C(C)C | 5.51
2.4 µM (≈ 3.06 µg/mL) | CC[C@H](C)[C@H](NC(=O)[C@H](CCCCN)NC(=O)[C@H](CCCCN)NC(=O)[C@H](Cc1c[nH]cn1)NC(=O)[C@@H](Cc1ccccc1)NC(=O)[C@@H](NC(=O)[C@@H](Cc1ccccc1)NC(=O)[C@@H](Cc1c[nH]c2ccccc12)NC(=O)[C@@H](N)CCCN=C(N)N)[C@@H](C)CC)C(N)=O | 5.78
2.32 µM (≈ 3.05 µg/mL) | CC[C@H](C)[C@H](NC(=O)[C@@H](Cc1ccccc1)NC(=O)[C@@H](Cc1c[nH]c2ccccc12)NC(=O)[C@@H](N)CCCN=C(N)N)C(=O)N[C@H](Cc1ccccc1)C(=O)N[C@@H](Cc1c[nH]cn1)C(=O)N[C@@H](CCCCN)C(=O)N[C@@H](CCCCN)C(=O)N[C@@H](CCCN=C(N)N)C(N)=O | 5.79
4.74 µM (≈ 6.25 µg/mL) | CC[C@H](C)[C@H](NC(=O)[C@@H](Cc1ccccc1)NC(=O)[C@@H](Cc1c[nH]c2ccccc12)NC(=O)[C@@H](N)CCCN=C(N)N)C(=O)N[C@H](Cc1ccccc1)C(=O)N[C@@H](Cc1c[nH]cn1)C(=O)N[C@@H](CCCCN)C(=O)N[C@@H](CCCN=C(N)N)C(=O)N[C@@H](CCC(=O)O)C(N)=O | 5.37
2.37 µM (≈ 3.05 µg/mL) | CC[C@H](C)[C@H](NC(=O)[C@@H](Cc1ccccc1)NC(=O)[C@@H](Cc1c[nH]c2ccccc12)NC(=O)[C@@H](N)CCCN=C(N)N)C(=O)N[C@H](Cc1ccccc1)C(=O)N[C@@H](Cc1c[nH]cn1)C(=O)N[C@@H](CCCCN)C(=O)N[C@@H](CCCCN)C(=O)N[C@@H](CCC(N)=O)C(N)=O | 5.59
4.62 µM (≈ 6.24 µg/mL) | CC[C@H](C)[C@H](NC(=O)[C@@H](Cc1ccccc1)NC(=O)[C@@H](Cc1c[nH]c2ccccc12)NC(=O)[C@@H](N)CCCN=C(N)N)C(=O)N[C@H](Cc1ccccc1)C(=O)N[C@@H](Cc1c[nH]cn1)C(=O)N[C@@H](CCCCN)C(=O)N[C@@H](CCCN=C(N)N)C(=O)N[C@@H](Cc1ccc(O)cc1)C(N)=O | 5.15
1.16 µM (≈ 1.54 µg/mL) | CC[C@H](C)[C@H](NC(=O)[C@@H](Cc1ccccc1)NC(=O)[C@@H](Cc1c[nH]c2ccccc12)NC(=O)[C@@H](N)CCCN=C(N)N)C(=O)N[C@H](Cc1ccccc1)C(=O)N[C@@H](Cc1c[nH]cn1)C(=O)N[C@@H](CCCCN)C(=O)N[C@@H](CCCCN)C(=O)N[C@@H](Cc1ccc(O)cc1)C(N)=O | 5.56
2.39 µM (≈ 3.11 µg/mL) | CC[C@H](C)[C@H](NC(=O)[C@@H](Cc1ccccc1)NC(=O)[C@@H](Cc1c[nH]c2ccccc12)NC(=O)[C@@H](N)CCCN=C(N)N)C(=O)N[C@H](Cc1ccccc1)C(=O)N[C@@H](Cc1c[nH]cn1)C(=O)N[C@@H](CCCCN)C(=O)N[C@@H](CCCN=C(N)N)C(=O)N[C@@H](CC(C)C)C(N)=O | 5.36
4.64 µM (≈ 6.24 µg/mL) | CC[C@H](C)[C@H](NC(=O)[C@@H](Cc1ccccc1)NC(=O)[C@@H](Cc1c[nH]c2ccccc12)NC(=O)[C@@H](N)CCCN=C(N)N)C(=O)N[C@H](Cc1ccccc1)C(=O)N[C@@H](Cc1c[nH]cn1)C(=O)N[C@@H](CCCCN)C(=O)N[C@@H](CCCN=C(N)N)C(=O)N[C@@H](CCCN=C(N)N)C(N)=O | 5.38
2.4 µM (≈ 3.06 µg/mL) | CC[C@H](C)[C@H](NC(=O)[C@@H](Cc1ccccc1)NC(=O)[C@@H](Cc1c[nH]c2ccccc12)NC(=O)[C@@H](N)CCCN=C(N)N)C(=O)N[C@H](Cc1ccccc1)C(=O)N[C@@H](Cc1c[nH]cn1)C(=O)N[C@@H](CCCCN)C(=O)N[C@@H](CCCCN)C(=O)N[C@@H](CC(N)=O)C(N)=O | 5.47
2.35 µM (≈ 3.12 µg/mL) | CC[C@H](C)[C@H](NC(=O)[C@@H](Cc1ccccc1)NC(=O)[C@@H](Cc1c[nH]c2ccccc12)NC(=O)[C@@H](N)CCCN=C(N)N)C(=O)N[C@H](Cc1ccccc1)C(=O)N[C@@H](Cc1c[nH]cn1)C(=O)N[C@@H](CCCCN)C(=O)N[C@@H](CCCN=C(N)N)C(=O)N[C@@H](Cc1c[nH]cn1)C(N)=O | 5.39
4.67 µM (≈ 6.24 µg/mL) | CC[C@H](C)[C@H](NC(=O)[C@@H](Cc1ccccc1)NC(=O)[C@@H](Cc1c[nH]c2ccccc12)NC(=O)[C@@H](N)CCCN=C(N)N)C(=O)N[C@H](Cc1ccccc1)C(=O)N[C@@H](Cc1c[nH]cn1)C(=O)N[C@@H](CCCCN)C(=O)N[C@@H](CCCN=C(N)N)C(=O)N[C@@H](Cc1ccccc1)C(N)=O | 5.26
4.96 µM (≈ 6.25 µg/mL) | CC[C@H](C)[C@H](NC(=O)[C@@H](Cc1ccccc1)NC(=O)[C@@H](Cc1c[nH]c2ccccc12)NC(=O)[C@@H](N)CCCN=C(N)N)C(=O)N[C@H](Cc1ccccc1)C(=O)N[C@@H](Cc1c[nH]cn1)C(=O)N[C@@H](CCCCN)C(=O)N[C@@H](CCCN=C(N)N)C(=O)N[C@@H](C)C(N)=O | 5.22
2.4 µM (≈ 3.06 µg/mL) | CC[C@H](C)[C@H](NC(=O)[C@@H](Cc1ccccc1)NC(=O)[C@@H](Cc1c[nH]c2ccccc12)NC(=O)[C@@H](N)CCCN=C(N)N)C(=O)N[C@H](Cc1ccccc1)C(=O)N[C@@H](Cc1c[nH]cn1)C(=O)N[C@@H](CCCCN)C(=O)N[C@@H](CCCCN)C(=O)N[C@@H](CC(C)C)C(N)=O | 5.66
4.84 µM (≈ 6.24 µg/mL) | CC[C@H](C)[C@H](NC(=O)[C@@H](Cc1ccccc1)NC(=O)[C@@H](Cc1c[nH]c2ccccc12)NC(=O)[C@@H](N)CCCN=C(N)N)C(=O)N[C@H](Cc1ccccc1)C(=O)N[C@@H](Cc1c[nH]cn1)C(=O)N[C@@H](CCCCN)C(=O)N[C@@H](CCCN=C(N)N)C(=O)N[C@H](C(N)=O)[C@@H](C)O | 5.22
4.89 µM (≈ 6.24 µg/mL) | CC[C@H](C)[C@H](NC(=O)[C@@H](Cc1ccccc1)NC(=O)[C@@H](Cc1c[nH]c2ccccc12)NC(=O)[C@@H](N)CCCN=C(N)N)C(=O)N[C@H](Cc1ccccc1)C(=O)N[C@@H](Cc1c[nH]cn1)C(=O)N[C@@H](CCCCN)C(=O)N[C@@H](CCCN=C(N)N)C(=O)N[C@@H](CO)C(N)=O | 5.36
4.54 µM (≈ 6.24 µg/mL) | CC[C@H](C)[C@H](NC(=O)[C@@H](Cc1ccccc1)NC(=O)[C@@H](Cc1c[nH]c2ccccc12)NC(=O)[C@@H](N)CCCN=C(N)N)C(=O)N[C@H](Cc1ccccc1)C(=O)N[C@@H](Cc1c[nH]cn1)C(=O)N[C@@H](CCCCN)C(=O)N[C@@H](CCCN=C(N)N)C(=O)N[C@@H](Cc1c[nH]c2ccccc12)C(N)=O | 5.20
2.36 µM (≈ 3.11 µg/mL) | CC[C@H](C)[C@H](NC(=O)[C@@H](Cc1ccccc1)NC(=O)[C@@H](Cc1c[nH]c2ccccc12)NC(=O)[C@@H](N)CCCN=C(N)N)C(=O)N[C@H](Cc1ccccc1)C(=O)N[C@@H](Cc1c[nH]cn1)C(=O)N[C@@H](CCCCN)C(=O)N[C@@H](CCCN=C(N)N)C(=O)N[C@@H](CCSC)C(N)=O | 5.34
4.79 µM (≈ 6.24 µg/mL) | CC[C@H](C)[C@H](NC(=O)[C@@H](Cc1ccccc1)NC(=O)[C@@H](Cc1c[nH]c2ccccc12)NC(=O)[C@@H](N)CCCN=C(N)N)C(=O)N[C@H](Cc1ccccc1)C(=O)N[C@@H](Cc1c[nH]cn1)C(=O)N[C@@H](CCCCN)C(=O)N[C@@H](CCCN=C(N)N)C(=O)N[C@@H](CC(=O)O)C(N)=O | 5.11
2.5 µM (≈ 3.11 µg/mL) | CC[C@H](C)[C@H](NC(=O)[C@@H](Cc1ccccc1)NC(=O)[C@@H](Cc1c[nH]c2ccccc12)NC(=O)[C@@H](N)CCCN=C(N)N)C(=O)N[C@H](Cc1ccccc1)C(=O)N[C@@H](Cc1c[nH]cn1)C(=O)N[C@@H](CCCCN)C(=O)N[C@@H](CCCN=C(N)N)C(=O)NCC(N)=O | 5.35
2.39 µM (≈ 3.11 µg/mL) | CC[C@H](C)[C@H](NC(=O)[C@H](CCCN=C(N)N)NC(=O)[C@H](CCCCN)NC(=O)[C@H](Cc1c[nH]cn1)NC(=O)[C@@H](Cc1ccccc1)NC(=O)[C@@H](NC(=O)[C@@H](Cc1ccccc1)NC(=O)[C@@H](Cc1c[nH]c2ccccc12)NC(=O)[C@@H](N)CCCN=C(N)N)[C@@H](C)CC)C(N)=O | 5.33
